{
  "source": "paper PMC10184313",
  "about": "“Inhibition of Thiamine Diphosphate-Dependent Enzymes by Triazole-Based Thiamine Analogues” (ACS Medicinal Chemistry Letters, 2023)",
  "key": {"P. falciparum strain 3D7": {"tested_on": "P. falciparum strain 3D7", "details": "thiamine 2.97 μM vs absence of thiamine; ref [15]; cited from earlier work"}, "[1]": {"tested_on": "P. falciparum 3D7 expressing PfTPK-GFP", "set-up": "method as in PMID 23804074", "details": "thiamine-free culture medium; ref [15]; cited from earlier work"}, "porcine PDHc E1": {"target": "T1, porcine PDHc E1 (Sus scrofa, UniProt P29804)", "T1 sequence (P29804 31-390)": "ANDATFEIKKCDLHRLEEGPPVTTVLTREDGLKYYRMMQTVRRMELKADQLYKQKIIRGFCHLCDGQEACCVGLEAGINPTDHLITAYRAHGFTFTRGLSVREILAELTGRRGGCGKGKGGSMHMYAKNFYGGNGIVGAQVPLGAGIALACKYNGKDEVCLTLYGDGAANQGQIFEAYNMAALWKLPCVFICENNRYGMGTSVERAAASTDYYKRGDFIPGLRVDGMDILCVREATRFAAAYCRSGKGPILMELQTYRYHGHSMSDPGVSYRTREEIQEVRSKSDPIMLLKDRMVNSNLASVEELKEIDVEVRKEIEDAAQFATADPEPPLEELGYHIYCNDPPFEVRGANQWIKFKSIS", "test": "PDHc E1 inhibitory activity assay (DCPIP reduction)", "type": "biochemical", "details": "porcine PDHc E1; read-out: KM(ThDP) PDHc E1", "method": "Enzyme assays – Methods and Results S1\nLigand efficiencies – Calculations S3 […]\nEnzyme assays (Methods and Results)\nPDHc E1 inhibitory activity assay. Porcine PDHc E1 was purchased from Sigma. Its activity was […]\ndetermined by monitoring 2,6-dichlorophenolindophenol (DCPIP) reduction at 600 nm using a […]\nmicroplate reader (CLARIOstar) and conducted as described 1,2 with some modifications. The percentage inhibition of compounds against porcine PDHc E1 was assayed at a final concentration of 250 µM. The reaction buffer (50 mM KH 2PO4 and 1 mM MgCl 2, pH 7) contained 50 µM ThDP (or 125 µM in the competition assay), 0.25 mM DCPIP, and 2 mg/ml porcine PDHc E1. The reaction mixture […]\nwas preincubated at 37 °C for 30 min, then the reaction was initiated by adding pyruvate to a final […]\nconcentration of 50 mM. To determine the half-maximal inhibitory concentration (IC 50 ), ThDP […]\nconcentration was lowered to 10 µM, and inhibitor concentration was varied (0.4-200 µM). Specific […]\nactivity was calculated using the molar extinction coefficient of DCPIP, 21 mM -1 cm-1.3 The enzyme […]\nIC50 values were calculated from non-linear regression curve fitting using GraphPad Prism."}, "E. coli OGDHc E1": {"target": "T2, E. coli OGDHc E1 (Escherichia coli, UniProt P0AFG3)", "T2 sequence (P0AFG3 1-933)": "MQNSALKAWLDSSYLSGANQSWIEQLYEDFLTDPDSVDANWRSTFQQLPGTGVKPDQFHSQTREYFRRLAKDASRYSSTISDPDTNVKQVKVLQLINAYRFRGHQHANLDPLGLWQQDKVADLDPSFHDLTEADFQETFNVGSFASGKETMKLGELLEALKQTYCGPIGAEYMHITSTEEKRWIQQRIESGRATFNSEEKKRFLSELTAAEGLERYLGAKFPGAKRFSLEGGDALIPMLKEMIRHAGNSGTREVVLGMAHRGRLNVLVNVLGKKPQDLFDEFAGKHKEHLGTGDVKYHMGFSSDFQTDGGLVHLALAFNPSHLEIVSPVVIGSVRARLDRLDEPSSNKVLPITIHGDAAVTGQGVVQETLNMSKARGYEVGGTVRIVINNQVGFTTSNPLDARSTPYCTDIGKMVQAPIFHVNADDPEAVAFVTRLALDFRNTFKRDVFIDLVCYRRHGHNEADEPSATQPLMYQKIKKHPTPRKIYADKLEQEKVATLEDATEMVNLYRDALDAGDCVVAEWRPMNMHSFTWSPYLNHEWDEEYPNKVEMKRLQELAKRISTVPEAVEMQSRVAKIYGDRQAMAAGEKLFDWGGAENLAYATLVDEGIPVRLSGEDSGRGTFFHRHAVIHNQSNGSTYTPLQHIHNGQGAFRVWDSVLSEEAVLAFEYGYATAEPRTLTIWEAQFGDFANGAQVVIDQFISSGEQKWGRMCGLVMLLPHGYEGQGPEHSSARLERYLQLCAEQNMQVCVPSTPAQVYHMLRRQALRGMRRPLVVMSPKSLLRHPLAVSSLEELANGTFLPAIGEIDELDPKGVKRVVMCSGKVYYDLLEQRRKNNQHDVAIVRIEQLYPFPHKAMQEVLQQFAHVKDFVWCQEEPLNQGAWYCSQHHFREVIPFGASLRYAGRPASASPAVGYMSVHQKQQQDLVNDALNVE", "test": "E. coli OGDHc E1 inhibitory activity assay (DCPIP reduction)", "type": "biochemical", "details": "E. coli OGDHc E1; read-out: KM(ThDP) OGDHc E1", "method": "E. coli OGDHc E1 inhibitory activity assay. E. coli OGDHc E1 was from our previous work 5 and had been donated by R. Frank. Its activity was determined by monitoring DCPIP reduction at 600 nm using a microplate reader (CLARIOstar) and conducted as described 1,2 with some modifications. The percentage inhibition of compounds against E. coli OGDHc E1 was assayed at a final concentration of 250 µM. The reaction buffer (50 mM KH 2PO4 and 2 mM MgCl 2, pH 7) contained 50 µM ThDP (or 125 µM in the competition assay), 0.5 mM DCPIP, and 6.7 mg/ml E. coli OGDHc E1. The reaction mixture was preincubated at 37 °C for 60 min, then reaction was initiated by adding α-ketoglutarate to a final concentration of 10 mM. To determine the IC 50, ThDP concentration was lowered to 30 µM, and inhibitor concentration was varied (2-1000 µM). Specific activity was calculated using the molar […]\nfor the PDHc E1 assay. […] 5 […]"}, "[2]": {"target": "PDC from Zymomonas mobilis", "set-up": "method as in PMID 19082157, PMID 20099870", "details": "ref [8],[24]; cited from earlier work"}, "[3]": {"substrate": "Cc1ncc(C[n+]2csc(CCO[P@](=O)(O)OP(=O)(O)O)c2C)c(N)n1", "test": "Z. mobilis PDC inhibitory activity assay (NADH consumption)", "type": "biochemical, Zymomonas mobilis", "details": "pH 7.0; 37.0 °C"}, "[4]": {"substrate": "Cc1ncc(C[n+]2csc(CCO[P@](=O)(O)OP(=O)(O)O)c2C)c(N)n1", "test": "A. viridans PO inhibitory activity assay (quinoneimine dye)", "type": "biochemical, Aerococcus viridans", "details": "other: A. viridans PO; 37.0 °C", "method": "A. viridans PO inhibitory activity assay. A. viridans PO and horseradish peroxidase were purchased from Sigma. A. viridans PO activity was determined by monitoring appearance of quinoneimine dye at 550 nm using a microplate reader (CLARIOstar) and conducted as described 1 with some modifications.\nThe percentage inhibition of compounds against A. viridans PO was assayed at a final concentration of 250 µM. The reaction buffer (50 mM KH 2PO4 and 10 mM MgCl 2, pH 5.9) contained 50 µM ThDP (or 125 µM in the competition assay), 10 µM flavin adenine dinucleotide (FAD), 0.15% 4-Aminoantipyrine, 0.3% N-Ethyl-N-(2-hydroxy-3-sulfopropyl)-m-toluidine (EHSPT), 50 µg/mL horseradish peroxidase and 0.35 U/mL A. viridans PO. The reaction mixture was preincubated at 37 °C for 30 min, then reaction was initiated by adding pyruvate to a final concentration of 50 mM. To determine the IC 50, inhibitor concentration was varied (2-1000 µM) with ThDP concentration at 50 µM. 1 unit of PO activity is defined as 1 μmol of hydrogen peroxide produced per minute. The enzyme IC 50 values were calculated as described for the PDHc E1 assay. […]"}},
  "data": [
    {"molecule": "Cc1ncc(C[n+]2csc(CCO)c2C)c(O)n1", "note": "[Compound 7a, oxythiamine]", "values": [
      {"measurement": "fold increase of IC50 with added thiamine", "setting": "P. falciparum strain 3D7", "result": 470, "unit": "fold"},
      {"measurement": "fold more sensitive, parasite over-expressing TPK vs parasite bearing an empty plasmid", "setting": "[1]", "result": 70, "unit": "fold"}
    ]},
    {"molecule": "Cc1ncc(C[n+]2csc(CCO[P@](=O)(O)OP(=O)(O)O)c2C)c(N)n1", "note": "[ThDP, thiamine diphosphate]", "values": [
      {"measurement": "Km", "setting": "porcine PDHc E1", "result": 0.05, "unit": "µM"},
      {"measurement": "Km", "setting": "E. coli OGDHc E1", "result": 3, "unit": "µM"}
    ]},
    {"molecule": "Cc1ncc(Cn2cc(CCOP(=O)(O)OP(=O)(O)O)nn2)c(N)n1", "note": "[Triazole-ThDP 5]", "values": [
      {"measurement": "Ki", "setting": "[2]", "result": 30, "unit": "pM"}
    ]},
    {"molecule": "Z. mobilis PDC (Zymomonas mobilis subsp. mobilis ZM4 = ATCC 31821) (protein, made in house) MSYTVGTYLAERLVQIGLKHHFAVAGDYNLVLLDNLLLNKNMEQVYCCNELNCGFSAEGYARAKGAAAAVVTYSVGALSAFDAIGGAYAENLPVILISGAPNNNDHAAGHVLHHALGKTDYHYQLEMAKNITAAAEAIYTPEEAPAKIDHVIKTALREKKPVYLEIACNIASMPCAAPGPASALFNDEASDEASLNAAVEETLKFIANRDKVAVLVGSKLRAAGAEEAAVKFADALGGAVATMAAAKSFFPEENPHYIGTSWGEVSYPGVEKTMKEADAVIALAPVFNDYSTTGWTDIPDPKKLVLAEPRSVVVNGIRFPSVHLKDYLTRLAQKVSKKTGALDFFKSLNAGELKKAAPADPSAPLVNAEIARQVEALLTPNTTVIAETGDSWFNAQRMKLPNGARVEYEMQWGHIGWSVPAAFGYAVGAPERRNILMVGDGSFQLTAQEVAQMVRLKLPVIIFLINNYGYTIEVMIHDGPYNNIKNWDYAGLMEVFNGNGGYDSGAGKGLKAKTGGELAEAIKVALANTDGPTLIECFIGREDCTEELVKWGKRVAAANSRKPVNKLL", "values": [
      {"measurement": "Km", "setting": "[3]", "result": 0.35, "unit": "µM"}
    ]},
    {"molecule": "A. viridans PO (Aerococcus viridans) (protein) MSDNKINIGLAVMKILESWGADTIYGIPSGTLSSLMDAMGEEENNVKFLQVKHEEVGAMAAVMQSKFGGNLGVTVGSGGPGASHLINGLYDAAMDNIPVVAILGSRPQRELNMDAFQELNQNPMYDHIAVYNRRVAYAEQLPKLVDEAARMAIAKRGVAVLEVPGDFAKVEIDNDQWYSSANSLRKYEPIAPAAQDIDAAVELLNNSKRPVIYAGIGTMGHGPAVQELARKIKAPVITTGKNFETFEWDFEALTGSTYRVGWKPANETILEADTVLFAGSNFPFSEVEGTFRNVDNFIQIDIDPAMLGKRHHADVAILGDAGLAIDEILNKVDAVEESAWWTANLKNIANWREYINMLETKEEGDLQFYQVYNAINNHADEDAIYSIDVGNSTQTSIRHLHMTPKNMWRTSPLFATMGIAIPGGLGAKNTYPDRQVWNIIGDGAFSMTYPDVVTNVRYNMPVINVVFSNTEYAFIKNKYEDTNKNLFGVDFTDVDYAKIAEAQGAKGFTVSRIEDMDRVMAEAVAANKAGHTVVIDCKITQDRPIPVETLKLDSKLYSEDEIKAYKERYEAANLVPFREYLEAEGLESKYIK", "values": [
      {"measurement": "Km", "setting": "[4]", "result": 5, "unit": "µM"}
    ]}
  ]
}
